Assay results published in patent publication US20230416248A1, “COMPOUNDS AND USES THEREOF” (Foghorn Therapeutics Inc., priority 2020, published 2023).
Like-named read-outs stand apart in the source and are kept apart here.

Columns and labels:
BRM = target: T1, BRM (Homo sapiens, UniProt P51531); experiment: ATPase catalytic activity of BRM, ADP-Glo in vitro biochemical assay; conditions: for IC50: 30 nM BRM, 400 μM ATP; for Ratio* (BRG1 IC50 (μM) divided by BRM IC50 (μM)): selectivity ratio BRG1 IC50 / BRM IC50
T1 construct: made in house; host or cells: High Five insect cells
How it was run: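 Recombinant BRM (30 nM) hydrolysed 400 μM ATP with 20 nM salmon sperm DNA in pH 8 Tris buffer containing 20 mM MgCl2, 50 mM NaCl, 0.1% Tween-20 and 1 mM DTT, 1 h at room temperature. ADP formed was quantified by ADP-Glo luminescence.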

BRG-1 = target: T2, BRG-1 (Homo sapiens, UniProt P51532); experiment: ATPase catalytic activity of BRG-1, ADP-Glo in vitro biochemical assay; conditions: 30 nM BRG-1, 400 μM ATP, read-out: BRG1 IC50
T2 construct: made in house; host or cells: High Five insect cells
How it was run: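 Biochemical ADP-Glo assay, BRG-1. Post-reaction: ATP depletion reagent, 40 min RT; ADP→ATP conversion/detection reagent, 60 min RT; luminescence read on plate luminometer.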

[1] = ATPase catalytic activity, ADP-Glo

T1 sequence (P51531 whole entry): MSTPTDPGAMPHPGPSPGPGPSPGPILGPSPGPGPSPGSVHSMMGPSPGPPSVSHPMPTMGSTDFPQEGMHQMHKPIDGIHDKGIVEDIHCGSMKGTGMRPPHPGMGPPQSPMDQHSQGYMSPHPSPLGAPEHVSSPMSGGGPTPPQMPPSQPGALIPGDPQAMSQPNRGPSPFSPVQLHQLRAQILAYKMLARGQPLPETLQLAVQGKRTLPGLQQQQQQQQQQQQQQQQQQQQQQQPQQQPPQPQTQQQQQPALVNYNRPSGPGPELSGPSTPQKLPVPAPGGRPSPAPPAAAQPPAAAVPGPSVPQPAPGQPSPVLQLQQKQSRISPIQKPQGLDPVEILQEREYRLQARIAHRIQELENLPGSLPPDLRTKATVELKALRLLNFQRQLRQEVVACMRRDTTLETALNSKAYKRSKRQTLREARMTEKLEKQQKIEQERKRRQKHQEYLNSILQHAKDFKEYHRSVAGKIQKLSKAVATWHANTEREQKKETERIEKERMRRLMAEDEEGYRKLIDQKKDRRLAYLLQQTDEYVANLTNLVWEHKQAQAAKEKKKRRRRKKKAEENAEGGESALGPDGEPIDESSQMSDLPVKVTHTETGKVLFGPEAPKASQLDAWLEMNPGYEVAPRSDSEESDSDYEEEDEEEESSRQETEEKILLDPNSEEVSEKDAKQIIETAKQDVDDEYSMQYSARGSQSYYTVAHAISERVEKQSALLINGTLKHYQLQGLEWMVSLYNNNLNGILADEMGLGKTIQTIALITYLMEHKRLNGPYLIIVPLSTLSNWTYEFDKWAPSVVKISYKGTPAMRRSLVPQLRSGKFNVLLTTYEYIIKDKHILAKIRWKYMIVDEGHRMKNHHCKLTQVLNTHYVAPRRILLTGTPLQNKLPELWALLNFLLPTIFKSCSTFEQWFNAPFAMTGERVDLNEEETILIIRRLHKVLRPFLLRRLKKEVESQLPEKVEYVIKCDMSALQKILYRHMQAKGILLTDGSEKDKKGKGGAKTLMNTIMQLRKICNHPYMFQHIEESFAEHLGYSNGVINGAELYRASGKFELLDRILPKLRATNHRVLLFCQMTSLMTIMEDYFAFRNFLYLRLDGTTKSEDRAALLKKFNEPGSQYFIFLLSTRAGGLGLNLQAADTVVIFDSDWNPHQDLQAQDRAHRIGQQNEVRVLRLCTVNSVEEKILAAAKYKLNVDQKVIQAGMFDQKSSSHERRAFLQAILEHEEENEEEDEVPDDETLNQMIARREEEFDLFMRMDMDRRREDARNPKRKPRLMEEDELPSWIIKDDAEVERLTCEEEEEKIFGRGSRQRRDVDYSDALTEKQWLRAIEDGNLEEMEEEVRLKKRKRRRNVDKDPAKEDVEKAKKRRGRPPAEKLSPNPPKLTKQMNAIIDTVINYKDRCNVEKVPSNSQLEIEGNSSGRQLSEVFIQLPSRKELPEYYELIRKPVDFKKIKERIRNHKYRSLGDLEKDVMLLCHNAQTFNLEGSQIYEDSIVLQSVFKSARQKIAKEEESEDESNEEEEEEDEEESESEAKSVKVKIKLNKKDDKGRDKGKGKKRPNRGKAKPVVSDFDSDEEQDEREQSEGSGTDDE
T2 sequence (P51532 whole entry): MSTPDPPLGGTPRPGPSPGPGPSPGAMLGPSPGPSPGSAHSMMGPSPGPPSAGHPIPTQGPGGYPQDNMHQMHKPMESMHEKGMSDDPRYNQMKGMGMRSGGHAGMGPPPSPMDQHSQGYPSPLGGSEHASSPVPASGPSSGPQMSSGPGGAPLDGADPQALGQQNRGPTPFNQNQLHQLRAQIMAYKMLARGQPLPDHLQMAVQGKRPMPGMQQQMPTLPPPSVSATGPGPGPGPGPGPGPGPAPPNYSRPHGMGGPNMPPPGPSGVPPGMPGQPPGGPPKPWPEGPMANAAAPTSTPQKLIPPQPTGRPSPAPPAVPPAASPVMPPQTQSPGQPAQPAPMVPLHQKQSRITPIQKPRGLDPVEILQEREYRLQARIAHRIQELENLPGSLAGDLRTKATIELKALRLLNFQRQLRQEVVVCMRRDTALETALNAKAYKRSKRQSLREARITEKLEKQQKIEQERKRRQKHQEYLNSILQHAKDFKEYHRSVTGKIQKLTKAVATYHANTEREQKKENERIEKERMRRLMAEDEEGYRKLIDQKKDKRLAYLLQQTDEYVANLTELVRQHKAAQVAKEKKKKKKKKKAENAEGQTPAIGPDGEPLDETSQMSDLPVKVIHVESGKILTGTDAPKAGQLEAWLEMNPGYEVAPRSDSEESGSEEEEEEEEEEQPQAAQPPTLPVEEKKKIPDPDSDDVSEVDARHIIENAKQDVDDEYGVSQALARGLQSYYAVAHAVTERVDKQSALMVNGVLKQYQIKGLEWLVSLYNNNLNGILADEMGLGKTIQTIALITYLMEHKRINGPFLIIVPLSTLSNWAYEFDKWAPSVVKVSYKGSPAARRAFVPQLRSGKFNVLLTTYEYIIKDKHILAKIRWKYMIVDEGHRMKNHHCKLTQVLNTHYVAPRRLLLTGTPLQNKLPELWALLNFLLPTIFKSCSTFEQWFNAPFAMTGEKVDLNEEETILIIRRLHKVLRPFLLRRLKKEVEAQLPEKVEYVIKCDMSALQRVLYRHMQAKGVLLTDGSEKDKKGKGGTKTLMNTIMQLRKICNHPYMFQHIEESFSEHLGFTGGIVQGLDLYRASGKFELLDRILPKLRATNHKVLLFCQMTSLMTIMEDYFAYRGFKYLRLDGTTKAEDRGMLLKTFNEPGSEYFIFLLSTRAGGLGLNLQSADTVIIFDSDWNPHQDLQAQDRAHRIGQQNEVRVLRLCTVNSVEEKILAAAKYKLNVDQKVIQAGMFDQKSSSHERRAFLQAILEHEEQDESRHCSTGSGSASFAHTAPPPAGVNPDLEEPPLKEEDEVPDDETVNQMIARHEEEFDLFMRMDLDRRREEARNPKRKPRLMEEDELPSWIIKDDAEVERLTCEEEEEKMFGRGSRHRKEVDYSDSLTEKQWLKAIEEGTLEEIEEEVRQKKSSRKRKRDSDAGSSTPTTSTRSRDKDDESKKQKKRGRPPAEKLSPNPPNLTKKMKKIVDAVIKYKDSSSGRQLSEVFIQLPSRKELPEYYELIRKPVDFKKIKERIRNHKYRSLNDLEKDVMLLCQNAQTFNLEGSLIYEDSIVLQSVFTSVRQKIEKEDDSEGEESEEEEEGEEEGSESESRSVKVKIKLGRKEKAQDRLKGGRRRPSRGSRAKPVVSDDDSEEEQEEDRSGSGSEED

Structure (SMILES)	IC50 (BRM; [1]) [nM]	Ratio* (BRM; ratio of BRG1 IC50 to BRM IC50)	IC50 (BRG-1; [1]) [nM]	IC50 (BRM; ADP-Glo ATPase assay) [nM]	Ratio* (BRG1 IC50 (μM) divided by BRM IC50 (μM)) (BRM)	IC50 (BRG-1; ADP-Glo ATPase assay) [nM]	Ratio* (BRM; ratio BRG1 IC50 / BRM IC50)
C[C@H]1COCCN1c1cccc(-c2ccc3cnc(CNC(=O)c4ccc5c(c4)S(=O)(=O)CCOC5)cc3n2)n1 [Compound 178]	–	–	–	180	7.72	1390	–
COCCc1ccc(C(=O)NCc2cc3nc(-c4cncc(C5CC5)n4)ccc3cn2)cc1S(C)(=O)=O [Compound 207]	–	–	–	407	12.29	5000	–
O=C(NCc1cc2nc(-c3cccc(OC(F)F)n3)ccc2cn1)c1ccc2c(c1)S(=O)(=O)CCOC2 [Compound 285]	–	–	–	19.3	25.69	497	–
COCCN(C)c1cccc(-c2ccc3cnc(CNC(=O)c4cnc(C(F)F)c(S(C)(=O)=O)c4)cc3n2)n1 [Compound 105]	–	–	–	69.9	13.41	937	–
CC(F)(F)COc1cccc(-c2ccc3cnc(CNC(=O)c4ccc5c(c4)S(=O)(=O)CCOC5)cc3n2)n1 [Compound 126]	–	–	–	33.5	8.80	295	–
CN1CCc2ccc(-c3ccc4cnc(CNC(=O)c5ccc6c(c5)S(=O)(=O)CCOC6)cc4n3)nc21 [Compound 190]	–	–	–	45.9	8.57	394	–
O=C(NCc1cc2nc(-c3cccc(OC4CC4)n3)ccc2cn1)c1ccc2c(c1)S(=O)(=O)CCOC2 [Compound 241]	–	–	–	62.3	17.23	1070	–
O=C(NCc1cc2nc(-c3cccc4c3OCO4)ccc2cn1)c1ccc2c(c1)S(=O)(=O)CCOC2 [Compound 229]	–	–	–	119	12.81	1520	–
CO[C@H]1CN(c2cccc(-c3ccc4cnc(CNC(=O)c5ccc6c(c5)S(=O)(=O)CCOC6)cc4n3)n2)C[C@H]1F [Compound 332]	16.6	13.49	224	–	–	–	–
Cc1cc2ccc(-c3ccc4cnc(CNC(=O)c5ccc6c(c5)S(=O)(=O)CCOC6)cc4n3)nc2n1C [Compound 85]	–	–	–	15.7	8.19	129	–
COCCN(CC(F)F)c1cccc(-c2ccc3cnc(CNC(=O)c4ccc5c(c4)S(=O)(=O)CCOC5)cc3n2)n1 [Compound 358]	4.6	7.69	35.4	–	–	–	–
COC1CCOc2c(-c3ccc4cnc(CNC(=O)c5ccc6c(c5)S(=O)(=O)CCOC6)cc4n3)cccc21 (stereo not drawn) [Compound 168]	–	–	–	94	9.35	879	–
C[C@@H]1CN(c2cccc(-c3ccc4cnc(CNC(=O)c5ccc(C(F)F)c(S(C)(=O)=O)c5)cc4n3)n2)C[C@H](C)O1 [Compound 206]	–	–	–	8	13.71	110	–
CN(c1ccccn1)c1ccc2cnc(CNC(=O)c3ccc4c(c3)S(=O)(=O)CCOC4)cc2n1 [Compound 108]	–	–	–	672	7.43	5000	–
O=C(NCc1cc2nc(-c3cccc(C4CC(F)(F)C4)n3)ccc2cn1)c1ccc2c(c1)S(=O)(=O)CCOC2 [Compound 171]	–	–	–	52.4	9.52	499	–
CS(=O)(=O)c1cc(C(=O)NCc2cc3nc(-c4cncc(C5CC5)n4)ccc3cn2)ccc1F [Compound 292]	–	–	–	667	7.50	5000	–
CO[C@@H]1CN(c2cccc(-c3ccc4cnc(CNC(=O)c5ccc6c(c5)S(=O)(=O)CCOC6)cc4n3)n2)C[C@H]1F [Compound 340]	22.2	13.96	309	–	–	–	–
CC(F)(F)c1cccc(-c2ccc3cnc(CNC(=O)c4ccc5c(c4)S(=O)(=O)CCOC5)cc3n2)n1 [Compound 281]	–	–	–	82.8	19.92	1650	–

Further lines, results first:

IC50 (BRM; [1]) [nM]	Ratio* (BRM; ratio of BRG1 IC50 to BRM IC50)	IC50 (BRG-1; [1]) [nM]	IC50 (BRM; ADP-Glo ATPase assay) [nM]	Ratio* (BRG1 IC50 (μM) divided by BRM IC50 (μM)) (BRM)	IC50 (BRG-1; ADP-Glo ATPase assay) [nM]	Ratio* (BRM; ratio BRG1 IC50 / BRM IC50)	Structure (SMILES)
16.8	9.37	158	–	–	–	–	O=C(NCc1cc2nc(N3CCCc4c(OC(F)F)ccnc43)ccc2cn1)c1ccc2c(c1)S(=O)(=O)CCOC2 [Compound 620]
35.3	5.73	202	–	–	–	–	Cc1cc2c(-c3ccc4cnc(CNC(=O)c5ccc6c(c5)S(=O)(=O)CCOC6)cc4n3)cncc2n1C [Compound 657]
27.4	3.98	109	–	–	–	–	COC[C@H]1CCCN(c2cccc(-c3ccc4cnc(CNC(=O)c5ccc6c(c5)S(=O)(=O)CCOC6)cc4n3)n2)C1 [Compound 622]
10.9	28.45	310	–	–	–	–	O=C(NCc1cc2nc(-c3cccc(C4CC4)n3)ccc2nn1)c1cc(F)c2c(c1)S(=O)(=O)CCOC2 [Compound 422]
5.9	8.14	48.3	–	–	–	–	Cc1cc(C(=O)NCc2cc3nc(-c4cccc(N5C[C@@H](C)O[C@@H](C)C5)n4)ccc3cn2)cc2c1COC[C@H](C)S2(=O)=O [Compound 457]
24.2	9.71	235	–	–	–	–	CN(CCC(F)F)c1cccc(-c2ccc3cnc(CNC(=O)c4ccc5c(c4)S(=O)(=O)CCOC5)cc3n2)n1 [Compound 460]
12.2	12.53	153	–	–	–	–	COc1ccc2c(c1)N(c1ccc3cnc(CNC(=O)c4ccc5c(c4)S(=O)(=O)CCOC5)cc3n1)CCC2 [Compound 539]
7.3	12.51	91.4	–	–	–	–	O=C(NCc1cc2nc(N3CCCc4ccc(Cl)cc43)ccc2cn1)c1ccc2c(c1)S(=O)(=O)CCOC2 [Compound 533]
22.1	11.34	250	–	–	–	–	O=C(NCc1cc2nc(N3CCCc4c(F)ccnc43)ccc2cn1)c1ccc2c(c1)S(=O)(=O)CCOC2 [Compound 526]
–	–	–	193	–	1450	7.51	O=C(NCc1cc2nc(-c3ccccc3OCC3CC3)ccc2cn1)c1ccc2c(c1)S(=O)(=O)CCOC2 [Compound 815]
13.1	24.88	325	–	–	–	–	CC(C)S(=O)(=O)c1cccc(C(=O)NCc2cc3nc(-c4cccc(N5C[C@@H](C)O[C@@H](C)C5)n4)ccc3cn2)c1 [Compound 365]
165	6.68	1100	–	–	–	–	O=C(NCc1cc2nc(-c3cccc4c3OCC[C@@H]4OC3COC3)ccc2cn1)c1ccc2c(c1)S(=O)(=O)CCOC2 [Compound 410]
14.5	52.11	758	–	–	–	–	O=C(NCc1cc2nc(N3CCOc4ccc([C@H]5CC5(F)F)nc43)ccc2cn1)c1ccc2c(c1)S(=O)(=O)CCOC2 [Compound 700]
126	5.93	750	–	–	–	–	CC1CN(c2ccc3cnc(CNC(=O)c4ccc5c(c4)S(=O)(=O)CCOC5)cc3n2)c2ncccc2N1C (stereo not drawn) [Compound 649]
41.8	24.42	1020	–	–	–	–	Cc1cc(C(=O)NCc2cc3nc(-c4cccc(N5C[C@@H](C)O[C@@H](C)C5)n4)ccc3cn2)cc2c1O[C@@H](C)CCS2(=O)=O [Compound 544]
–	–	–	27.5	–	1060	38.76	O=C(NCc1cc2nc(N3CCOc4ccc(C(F)CF)nc43)ccc2cn1)c1ccc2c(c1)S(=O)(=O)CCOC2 (stereo not drawn) [Compound 838]
